Measured values taken from patent publication US9012427B2, “Pharmaceutical combinations comprising a thionucleotide analog” (Alios BioPharma, Inc., priority 2012, dated 2015).
Read-outs that look alike come from different tables or passages of the source.

System: genotype 1b replicon carrying the firefly luciferase reporter
Test: HCV replicon in vitro combination assay, dual and triple combination (Example 1)
Type: cell-based
Conditions: Hepatitis C virus, 72 h, read-out: Individual IC50 values
Description: All compounds were dissolved in 100% DMSO (dimethyl sulfoxide) to a stock concentration of 10 mM and stored at −20° C. Serial 2-fold or 3-fold dilution series of compounds were prepared in 100% DMSO at 400-fold of the final concentration to be used in cell culture experiments that would result in a final DMSO concentration of 0.25% in growth medium.
Drug combination studies were carried out using the transient replicon system. On day one, in vitro transcribed RNA of a genotype 1b replicon carrying the firefly luciferase reporter was transfected into Huh-7-ET-cured cells using Minis transfection reagent. (Lohmann V et al., “Replication of subgenomic hepatitis C virus RNAs in a hepatoma cell line” Science (1999) 285(5424):110-113, which is hereby incorporated by reference in its entirety) Ten thousand transfected cells were cultured in complete DMEM medium [DMEM medium supplemented with 2 mM L-glutamine, 1× non-essential amino acids, 10% heat inactivated FBS and PenStrep (100 units/mL penicillin and 100 ug/mL streptomycin)] in the central 60 wells of 96-well, flat bottom, tissue culture treated plates and cultured at 37° C./5% CO2 humidified incubator for 24 h. The next day, compounds were serially diluted (2× or 3× dilution series) in 100% DMSO, mixed together in a checkerboard fashion and added to cells, and the plates were returned to the incubator for an additional 72 h. […] At the end of the incubation, cells from one set of the plates were lysed and the luciferase activity was measured using a luciferase assay kit. […]
The effects of dual combinations were evaluated using the Bliss independence model. (Greco et al., “The search for synergy: a critical review from a response surface perspective” Pharmacol. Rev. (1995) 47(2):331-385, which is hereby incorporated by reference in its entirety) The experimental data (RLU) was analyzed by using MacSynergy, a three-dimensional analytical method developed by Prichard and Shipman. […] The volume of the peak or depression is calculated to quantify the overall synergy or antagonism produced.

[1] = single compound, genotype 1b transient replicon in Huh-7-ET-cured cells, n = 3

## CC(C)OC(=O)[C@H](C)N[P@](=S)(OC[C@H]1O[C@@H](n2ccc(=O)[nH]c2=O)[C@](C)(O)[C@@H]1O)Oc1ccccc1 [Compound 1004]
  IC50: 357 nM

## COc1ccc2c(O[C@@H]3C[C@H]4C(=O)N[C@]5(C(=O)NS(=O)(=O)C6CC6)C[C@H]5/C=C\CCCCN(C)C(=O)[C@@H]4C3)cc(-c3nc(C(C)C)cs3)nc2c1C [Compound 3013, TMC-435]
[1]
  IC50: 2.1 nM

## COC(=O)N[C@H](C(=O)N1CCC[C@H]1c1ncc(-c2ccc(-c3ccc(-c4cnc([C@@H]5CCCN5C(=O)[C@@H](NC(=O)OC)C(C)C)[nH]4)cc3)cc2)[nH]1)C(C)C [Compound 3043, Daclatasvir]
[1]
  IC50: 0.0114 nM
